Values of other authors as cited in patent publication US8497290B2, “Thiocolchicine derivatives, method of making and methods of use thereof” (priority 2009, dated 2013).

Tested on: rat model
Conditions: metabolites of thiocolchicoside, compared with thiocolchicoside

Structure (SMILES): COc1c(O[C@@H]2O[C@H](C(=O)O)[C@@H](O)[C@H](O)[C@H]2O)cc2c(c1OC)-c1ccc(SC)c(=O)cc1[C@@H](NC(C)=O)CC2 [3-O-glucuronidated aglycone derivative, (7S)-7-(acetylamino)-5,6,7,9-tetrahydro-1,2-dimethoxy-10-(methylthio)-9-oxobenzo[a]heptalen-3-yl β-D-glucopyranosiduronic acid]
- muscle relaxant activity: muscle relaxant activity similar to that of thiocolchicoside
